The results in this text go back to patent US11549123B2, “Plant EPSP synthases and methods of use” (PIONEER HI-BRED INTERNATIONAL, INC., priority 2015, dated 2023).

Test [1] concerns the target T1, Zea mays EPSPS variant Zm-H6 (868-H6) with H54E (H6-H54E) (Zea mays, UniProt O24566, A1R/A3W/A415G/A71Q/D401G/E301S/E390G/G101A/H53E/I207L/K83R/L97C/T278A/T360S/T440Q/V437R).
T1 construct: 868-H6 plus H54E; E. coli BL21(DE3), Ni-NTA purified
T1 sequence (O24566 with tags, fused parts or gaps A1R/A3W/H53E/A71Q/K83R/L97C/G101A/I207L/T278A/E301S/T360S/E390G/D401G/A415G/V437R/T440Q): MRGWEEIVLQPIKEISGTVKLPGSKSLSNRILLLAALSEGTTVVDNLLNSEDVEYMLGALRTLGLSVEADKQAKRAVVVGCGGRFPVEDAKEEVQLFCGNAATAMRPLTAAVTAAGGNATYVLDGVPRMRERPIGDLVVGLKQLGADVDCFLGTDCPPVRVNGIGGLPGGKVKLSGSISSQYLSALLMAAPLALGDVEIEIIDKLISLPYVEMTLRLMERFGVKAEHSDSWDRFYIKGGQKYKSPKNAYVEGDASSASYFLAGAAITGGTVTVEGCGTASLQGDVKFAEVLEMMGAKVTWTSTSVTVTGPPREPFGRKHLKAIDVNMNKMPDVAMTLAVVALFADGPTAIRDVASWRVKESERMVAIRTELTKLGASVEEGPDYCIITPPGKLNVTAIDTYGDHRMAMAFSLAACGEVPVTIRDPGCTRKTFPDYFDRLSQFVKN
Briefly: Substrate saturation kinetic analysis with glyphosate, H6-H54E. It is filed as biochemical.

Test [2] deals with T2, Zea mays EPSPS variant Zm-A189T (Zea mays, UniProt O24566, A188T).
T2 sequence (O24566 with tags, fused parts or gaps A188T): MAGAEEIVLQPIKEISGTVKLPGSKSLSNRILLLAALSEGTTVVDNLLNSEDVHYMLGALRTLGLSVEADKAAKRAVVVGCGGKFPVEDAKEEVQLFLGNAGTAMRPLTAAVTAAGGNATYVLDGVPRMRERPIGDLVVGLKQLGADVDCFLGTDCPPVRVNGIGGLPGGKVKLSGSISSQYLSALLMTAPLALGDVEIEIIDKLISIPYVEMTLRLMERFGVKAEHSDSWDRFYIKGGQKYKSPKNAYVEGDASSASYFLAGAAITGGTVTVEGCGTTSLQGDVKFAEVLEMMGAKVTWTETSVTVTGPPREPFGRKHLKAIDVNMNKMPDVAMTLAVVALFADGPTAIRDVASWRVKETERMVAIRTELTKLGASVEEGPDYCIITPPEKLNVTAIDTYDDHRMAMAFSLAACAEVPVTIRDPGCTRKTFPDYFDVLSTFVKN
Kind of test: Substrate saturation kinetic analysis with glyphosate, Zm-A189T. It is filed as biochemical.

SMILES strings stand for the structures.

Consider `O=C(O)CNCP(=O)(O)O` [glyphosate, N-phosphonomethylglycine], for which the inhibition constant Ki in test [1] stood at 488 µM; in test [2] it was 337 µM. For the same molecule, the “(kcat/KM)*KI” value in test [1] (substrate saturation, H6-H54E) came to 4340; in test [2] (substrate saturation, Zm-A189T) it was 283.
